Assay results from paper PMC11189555, “Aryl amino acetamides prevent Plasmodium falciparum ring development via targeting the lipid-transfer protein PfSTART1” (Nature Communications, 2024).
Several values for one entry are separate records, joined by “and”; a condition that tells them apart may be missing. Equal values may be shown once. Read-outs that look alike come from different tables or passages of the source.

Test system: SLI-N330K parasites
Test: Growth inhibition assay (72 h, LDH activity)
Format: cell-based, Plasmodium falciparum
Settings: for Growth inhibition, (1 - av / DMSO) x 100: Fig 2B source data, per biological replicate; for EC50: Plasmodium falciparum
Method: Parasite growth assays with inhibitory compounds were performed as per[11] and are fully described in the Supplementary Information.
Molecular biology and transfection of P. falciparum: Selection Linked Integration […]
To introduce the PfSTART1 mutations, the second half of the coding sequence of pfstart1 (PF3D7_0104200), was recodonised without introns to the bias of Saccharomyces cerevisiae containing either WT, N309K or N330K mutations, and synthesised as gBlock fragments (Integrated DNA Technologies). The first 819 bp of the 5′ native sequence of pfstart1 was amplified from gDNA, to form the 5’ homology block (5’ HB). The 3′ recodonised gBlock fragment comprising of the last 552 bp of either the WT, N309K or N330K pfstart1 to form the ‘recodon’ block (primers listed in Table S2). The 5’ HB and recodon products were sewn together by overlapping PCR to reconstitute the full coding sequence of pfstart1. These blocks (WT/N309K/N330K) were digested with BglII/PstI, and inserted into the parasite vector p-HA-2A-Neo-glmS
1. This plasmid contains an in -frame haemagglutinin (HA) epitope for protein identification and a P2A peptide (2A) to skip continuous peptide bond synthesis of a downstream neomycin resistance gene ( NeoR).
Parasites containing the transfected DNA were selected using 2.5 nM WR99210 (Jacobus). To select for parasites in which single crossover integration had occurred into the pfstart1 locus, parasites were treated with 400 μg/mL G418 (geniticin, Sigma Aldrich) for 14 days: only parasites that have integrated the construct into their genome expressed the neomycin resistance gene together with the PfSTART1 protein.
Parasite lines were cloned using limiting dilution. These clones were then tested on Western Blot (for correct HA-tagging and protein size), and correct integration and sequence were tested by PCR analysis: PCR on the gDNA was conducted using the primers START_5’UTR.F and START_Seq.R (Table S2). […]
Growth inhibition assays. Synchronised ring-stage parasites (0.3-0.6% parasitemia, 2% haematocrit) were grown for 72 h in a serial-dilution of the compound under […]
and compound 4. Note that M-833 was first purchased from MolPort (MolPort -002-267-916) then made in-house at WEHI: the differences observed in EC50s across experiments are attributed to the different batches of M -833. For some experiments, 0, 0.25 or 2.5 mM of glucosamine (GlcN) was also added. Experiments were set up in technical duplicates or triplicates. Following a freeze -thaw cycle, lactate dehydrogenase (LDH) activity was assessed as an indicator of parasite growt h 5. 30 μL of parasite culture was incubated for 30 min in the dark with 75 μL Malstat mixture (0.1 M Tris pH 9.0, 20 g/L lactic acid, pH 7.5, 0.2% Triton-X100, 0.5 g/L acetylpyridine adenine dinucleotide (APAD, Sigma), 200 μg/mL nitroblue tetrazolium (NBT; Sigma), 1 μg/mL phenozine ethosulfate (PES; Sigma)). Absorbance was then measured at 650 nm, transformed using the formula below, plotted against the logarithm of the concentrations, and a non-linear regression (log(inhibitor) vs. response, variable slope) was calculated using GraphPad Prism to assess the half-inhibitory […]
Growth inhibition % = (1 − average(sample)− average(uRBC)) ∗ 100 […]
The DMSO samples were also used to assess growth of parasite in the presence of 0.25 and 2.5 mM GlcN (normalised by DMSO in 0 mM GlcN).
Egress, invasion & recovery assay. To measure egress, invasion and follow up recovery in the presence of different compounds, we adapted the method developed in6, using Hyp1-Nluc parasites7. These parasites episomally express the exported PEXEL protein Hyp1 (PF3D7_0113300) tagged with a NanoLuc luciferase (NLuc) and were selected with 2.5 nM WR99210 (Jacobus). Highly synchronised schizonts were obtained using ML10 (LifeArc) and sorbitol synchronisation, and Percoll-purified (the culture was gently layered over 67% Percoll (Cytiva) in RPMI, and centrifuged for 15 min at 1500 g and the schizont layer was collected and washed). […]

Cc1cc(Cl)c(S(=O)(=O)N2CCCC2)cc1OCC(=O)NC1CCCCC1 [M-833]
sample/DMSO (0.123457 uM M-833, START(N330K), 0.25 mM GlcN, biological replicate 4): -2.981 | sample/DMSO (0.123457 uM M-833, START(N330K), 2.5 mM GlcN, biological replicate 1): 25.4075 | sample/DMSO (0.123457 uM M-833, START(N330K), 2.5 mM GlcN, biological replicate 2): 9.59 | sample/DMSO (0.123457 uM M-833, START(N330K), 2.5 mM GlcN, biological replicate 3): 1.226 | sample/DMSO (0.123457 uM M-833, START(N330K), 2.5 mM GlcN, biological replicate 4): -0.1405 | sample/DMSO (0.37037 uM M-833, START(N330K), 0 mM GlcN, biological replicate 1): 19.3431 | sample/DMSO (0.37037 uM M-833, START(N330K), 0 mM GlcN, biological replicate 2): 2.274 | sample/DMSO (0.37037 uM M-833, START(N330K), 0 mM GlcN, biological replicate 3): 7.66 | sample/DMSO (0.37037 uM M-833, START(N330K), 0 mM GlcN, biological replicate 4): -3.175 | sample/DMSO (0.37037 uM M-833, START(N330K), 0.25 mM GlcN, biological replicate 1): 19.0968 | sample/DMSO (0.37037 uM M-833, START(N330K), 0.25 mM GlcN, biological replicate 2): 15.8158 | sample/DMSO (0.37037 uM M-833, START(N330K), 0.25 mM GlcN, biological replicate 3): 6.853 | sample/DMSO (0.37037 uM M-833, START(N330K), 0.25 mM GlcN, biological replicate 4): -2.547 | sample/DMSO (0.37037 uM M-833, START(N330K), 2.5 mM GlcN, biological replicate 1): 28.3178 | sample/DMSO (0.37037 uM M-833, START(N330K), 2.5 mM GlcN, biological replicate 2): 11.3273 | sample/DMSO (0.37037 uM M-833, START(N330K), 2.5 mM GlcN, biological replicate 3): 5.76 | sample/DMSO (0.37037 uM M-833, START(N330K), 2.5 mM GlcN, biological replicate 4): 6.979 | sample/DMSO (1.11111 uM M-833, START(N330K), 0 mM GlcN, biological replicate 1): 22.4532 | sample/DMSO (1.11111 uM M-833, START(N330K), 0 mM GlcN, biological replicate 2): 7.959 | sample/DMSO (1.11111 uM M-833, START(N330K), 0 mM GlcN, biological replicate 3): 16.7199 | sample/DMSO (1.11111 uM M-833, START(N330K), 0 mM GlcN, biological replicate 4): 4.969 | sample/DMSO (1.11111 uM M-833, START(N330K), 0.25 mM GlcN, biological replicate 1): 24.0145 | sample/DMSO (1.11111 uM M-833, START(N330K), 0.25 mM GlcN, biological replicate 2): 17.1338 | sample/DMSO (1.11111 uM M-833, START(N330K), 0.25 mM GlcN, biological replicate 3): 18.125 | sample/DMSO (1.11111 uM M-833, START(N330K), 0.25 mM GlcN, biological replicate 4): 8.022 | sample/DMSO (1.11111 uM M-833, START(N330K), 2.5 mM GlcN, biological replicate 1): 36.9907 | sample/DMSO (1.11111 uM M-833, START(N330K), 2.5 mM GlcN, biological replicate 2): 15.1494 | sample/DMSO (1.11111 uM M-833, START(N330K), 2.5 mM GlcN, biological replicate 3): 17.4656 | sample/DMSO (1.11111 uM M-833, START(N330K), 2.5 mM GlcN, biological replicate 4): 7.728 | Growth inhibition, (1 - av / DMSO) x 100 (SLI-N330K, M-833 conc 0.00304832 (unit not given)): -17.2829% and -4.43% and -6.85% | Growth inhibition, (1 - av / DMSO) x 100 (SLI-N330K, M-833 conc 0.00914495 (unit not given)): -20.2465% and -6.679% and -8.021% | Growth inhibition, (1 - av / DMSO) x 100 (SLI-N330K, M-833 conc 0.0274348 (unit not given)): -22.4472% and -9.048% and -10.9244% | Growth inhibition, (1 - av / DMSO) x 100 (SLI-N330K, M-833 conc 0.0823045 (unit not given)): -27.3474% and -6.202% and -4.991% | Growth inhibition, (1 - av / DMSO) x 100 (SLI-N330K, M-833 conc 0.246914 (unit not given)): -20.5399% and -4.464% and 0.9677% | Growth inhibition, (1 - av / DMSO) x 100 (SLI-N330K, M-833 conc 0.740741 (unit not given)): -11.4437% and -0.9712% and 2.699% | Growth inhibition, (1 - av / DMSO) x 100 (SLI-N330K, M-833 conc 2.22222 (unit not given)): 10.9155% and 8.4% and 12.8088% | Growth inhibition, (1 - av / DMSO) x 100 (SLI-N330K, M-833 conc 6.66667 (unit not given)): 48.6796% and 44.0109% and 38.2735% | Growth inhibition, (1 - av / DMSO) x 100 (SLI-N330K, M-833 conc 20 (unit not given)): 69.4542% and 76.7081% and 72.5236% | sample/DMSO (M-833 3.33333 uM, START(N330K), 0 mM GlcN, biological replicates 1-4): 23.2009 and 27.766 and 32.1009 and 22.2063 | sample/DMSO (M-833 3.33333 uM, START(N330K), 0.25 mM GlcN, biological replicates 1-4): 36.1845 and 29.2292 and 28.75 and 22.2222 | sample/DMSO (M-833 3.33333 uM, START(N330K), 2.5 mM GlcN, biological replicates 1-4): 45.6636 and 29.3607 and 33.6678 and 26.3232 | sample/DMSO (M-833 10 uM, START(N330K), 0 mM GlcN, biological replicates 1-4): 60.4059 and 63.1206 and 59.1558 and 63.3004 | sample/DMSO (M-833 10 uM, START(N330K), 0.25 mM GlcN, biological replicates 1-4): 65.2315 and 63.5636 and 70.0446 and 58.3469 | sample/DMSO (M-833 10 uM, START(N330K), 2.5 mM GlcN, biological replicates 1-4): 68.4226 and 62.1265 and 64.6971 and 47.1194 | EC50 (Fig 2B, SLI-N330K, 72 h, n = 3, unit only in x-axis title, read-out: EC50 (95% confidence interval)): 6.27 µM | EC50 (Fig 3C, SLI-N330K, 2.5 mM GlcN, n = 4, unit on plot axis, read-out: EC50 M-833 (95% confidence interval)): > 3 µM | fold more resistant than the 3D7 parental parasites (SLI-N330K, Fig 2B): 64 fold
